Laboratory results reported in US8497385B2, “Bryostatin analogues, synthetic methods and uses” (The Board of Trustees of the Leland Stanford Junior …, priority 2007, dated 2013).

Legend:
[1] = system: NCl human cancer cell-lines; experiment: In vitro inhibition of growth in NCI human cancer cell lines, all cell groups; assay type: cell-based; settings: all cell groups tested
MOLT-4 = experiment: NCI growth inhibition, MOLT-4 (Leukemia); assay type: cell-based, human
SR = experiment: NCI growth inhibition, SR (Leukemia); assay type: cell-based, human
A549/ATCC = experiment: NCI growth inhibition, A549/ATCC (NSC Lung); assay type: cell-based, human
EKVX = experiment: NCI growth inhibition, EKVX (NSC Lung); assay type: cell-based, human
HOP-62 = experiment: NCI growth inhibition, HOP-62 (NSC Lung); assay type: cell-based, human
COLO 205 = experiment: NCI growth inhibition, COLO 205 (Colon); assay type: cell-based, human
HCC-2998 = experiment: NCI growth inhibition, HCC-2998 (Colon); assay type: cell-based, human
HT29 = experiment: NCI growth inhibition, HT29 (Colon); assay type: cell-based, human
SF-268 = experiment: NCI growth inhibition, SF-268 (CNS); assay type: cell-based, human
PC-3 = experiment: NCI growth inhibition, PC-3 (Prostate); assay type: cell-based, human
LOX IMVI = experiment: NCI growth inhibition, LOX IMVI (Melanoma); assay type: cell-based, human
MI4 = experiment: NCI growth inhibition, MI4 (Melanoma); assay type: cell-based, human
SK-MEL-2 = experiment: NCI growth inhibition, SK-MEL-2 (Melanoma); assay type: cell-based, human
SK-MEL-28 = experiment: NCI growth inhibition, SK-MEL-28 (Melanoma); assay type: cell-based, human
SK-MEL-5 = experiment: NCI growth inhibition, SK-MEL-5 (Melanoma); assay type: cell-based, human
UACC-257 = experiment: NCI growth inhibition, UACC-257 (Melanoma); assay type: cell-based, human
OVCAR-3 = experiment: NCI growth inhibition, OVCAR-3 (Ovarian); assay type: cell-based, human
OVCAR-5 = experiment: NCI growth inhibition, OVCAR-5 (Ovarian); assay type: cell-based, human
A498 = experiment: NCI growth inhibition, A498 (Renal); assay type: cell-based, human
CAKI-1 = experiment: NCI growth inhibition, CAKI-1 (Renal); assay type: cell-based, human
TK-10 = experiment: NCI growth inhibition, TK-10 (Renal); assay type: cell-based, human
BT-549 = experiment: NCI growth inhibition, BT-549 (Breast); assay type: cell-based, human
T-47D = experiment: NCI growth inhibition, T-47D (Breast); assay type: cell-based, human
HS 578T = experiment: NCI growth inhibition, HS 578T (Breast); assay type: cell-based, human

CCCCCCCC(=O)OC1C(=CC(=O)OC)CC2CC(CO)OC(=O)CC(O)CC3CCCC(CC4CCOC(C=CC(C)(C)C1(O)O2)O4)O3 (stereo not drawn) [Formula IIa (702.1)]
potency relative to bryostatin-1, on average [1]: at least as potent, on average, as bryostatin-1 | Difference of GI50 (log), Desmethyl vs Bryo-1 (MOLT-4; MOLT-4): −2.50 | GI50 (MOLT-4; MOLT-4, Leukemia): <−8.0 log of molar concentration | more active than bryostatin-1 (MOLT-4; MOLT-4, Leukemia): more than 2 orders of magnitude | Difference of GI50 (log), Desmethyl vs Bryo-1 (SR): −0.10 | GI50 (SR; Leukemia): −5.1 log of molar concentration | Difference of GI50 (log), Desmethyl vs Bryo-1 (A549/ATCC): −1.42 | GI50 (A549/ATCC; NSC Lung): −6.62 log of molar concentration | Difference of GI50 (log), Desmethyl vs Bryo-1 (EKVX): −0.28 | GI50 (EKVX; NSC Lung): −5.58 log of molar concentration | GI50 (HOP-62): −4.79 log of molar concentration | Difference of GI50 (log), Desmethyl vs Bryo-1 (COLO 205; COLO 205): −1.68 | GI50 (COLO 205; COLO 205, Colon): −7.08 log of molar concentration | Difference of GI50 (log), Desmethyl vs Bryo-1 (HCC-2998; HCC-2998): −2.24 | GI50 (HCC-2998; HCC-2998, Colon): −7.54 log of molar concentration | more active than bryostatin-1 (HCC-2998; HCC-2998, Colon): more than 2 orders of magnitude | Difference of GI50 (log), Desmethyl vs Bryo-1 (HT29; HT29): −0.25 | GI50 (HT29; HT29, Colon): −5.55 log of molar concentration | Difference of GI50 (log), Desmethyl vs Bryo-1 (SF-268; SF-268): 0.13 | GI50 (SF-268; SF-268, CNS): −4.97 log of molar concentration | Difference of GI50 (log), Desmethyl vs Bryo-1 (PC-3; PC-3): −0.30 | GI50 (PC-3; PC-3, Prostate): −5.6 log of molar concentration | Difference of GI50 (log), Desmethyl vs Bryo-1 (LOX IMVI): −0.37 | GI50 (LOX IMVI; Melanoma): −5.47 log of molar concentration | Difference of GI50 (log), Desmethyl vs Bryo-1 (MI4; MI4): −0.26 | GI50 (MI4; MI4, Melanoma): −5.26 log of molar concentration | Difference of GI50 (log), Desmethyl vs Bryo-1 (SK-MEL-2; SK-MEL-2): 0.18 | GI50 (SK-MEL-2; SK-MEL-2, Melanoma): −5.02 log of molar concentration | Difference of GI50 (log), Desmethyl vs Bryo-1 (SK-MEL-28; SK-MEL-28): 0.43 | GI50 (SK-MEL-28; SK-MEL-28, Melanoma): −4.67 log of molar concentration | Difference of GI50 (log), Desmethyl vs Bryo-1 (SK-MEL-5; SK-MEL-5): −0.73 | GI50 (SK-MEL-5; SK-MEL-5, Melanoma): −6.43 log of molar concentration | Difference of GI50 (log), Desmethyl vs Bryo-1 (UACC-257; UACC-257): −0.03 | GI50 (UACC-257; UACC-257, Melanoma): −5.13 log of molar concentration | Difference of GI50 (log), Desmethyl vs Bryo-1 (OVCAR-3; OVCAR-3): 0.27 | GI50 (OVCAR-3; OVCAR-3, Ovarian): −4.83 log of molar concentration | Difference of GI50 (log), Desmethyl vs Bryo-1 (OVCAR-5; OVCAR-5): −0.28 | GI50 (OVCAR-5; OVCAR-5, Ovarian): −5.28 log of molar concentration | Difference of GI50 (log), Desmethyl vs Bryo-1 (A498; A498): −1.38 | GI50 (A498; A498, Renal): −6.38 log of molar concentration | Difference of GI50 (log), Desmethyl vs Bryo-1 (CAKI-1; CAKI-1): −0.30 | GI50 (CAKI-1; CAKI-1, Renal): −5.7 log of molar concentration | Difference of GI50 (log), Desmethyl vs Bryo-1 (TK-10; TK-10): −2.03 | GI50 (TK-10; TK-10, Renal): −7.03 log of molar concentration | more active than bryostatin-1 (TK-10; TK-10, Renal): more than 2 orders of magnitude | Difference of GI50 (log), Desmethyl vs Bryo-1 (BT-549; BT-549): 0.39 | GI50 (BT-549; BT-549, Breast): −4.71 log of molar concentration | Difference of GI50 (log), Desmethyl vs Bryo-1 (T-47D): 0.18 | GI50 (T-47D; Breast): −5.02 log of molar concentration | Difference of GI50 (log), Desmethyl vs Bryo-1 (HS 578T): 0.02 | GI50 (HS 578T; Breast): −5.18 log of molar concentration
